The values that follow come from patent US20050065348A1, “Pyridin-2-yl-methylamine derivatives for treating opioid dependence” (priority 2001, published 2005).

Structures can show the parent of a compound that is named as a salt.

The target in test [1] is T1, 5-HT1A receptor (Rattus norvegicus, UniProt P19327).
T1 construct: Tissue: cerebral cortex of rat; from tissue; host or cells: rat cerebral cortex
T1 sequence (P19327 1-422): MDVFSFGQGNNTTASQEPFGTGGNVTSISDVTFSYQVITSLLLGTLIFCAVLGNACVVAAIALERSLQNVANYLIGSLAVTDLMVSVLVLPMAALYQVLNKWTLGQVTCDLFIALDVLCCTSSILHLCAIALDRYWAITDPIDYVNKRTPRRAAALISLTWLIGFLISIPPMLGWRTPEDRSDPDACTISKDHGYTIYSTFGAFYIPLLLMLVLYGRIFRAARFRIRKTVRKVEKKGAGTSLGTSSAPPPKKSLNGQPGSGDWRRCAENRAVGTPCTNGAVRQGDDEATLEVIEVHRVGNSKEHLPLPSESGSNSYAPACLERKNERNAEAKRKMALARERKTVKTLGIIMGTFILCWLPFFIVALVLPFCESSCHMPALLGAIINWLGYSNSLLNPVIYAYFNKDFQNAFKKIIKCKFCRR
As to the kind of experiment: Affinity for the 5-HT1A receptor (3H-8-OH-DPAT displacement). Conditions: Tissue: cerebral cortex of rat, average of at least 3 experiments. It is filed as binding. As to the method: Measurement of the affinity of compound F and reference products for the 5-HT1A receptor
Study of the bond with the 5-HT1A receptor was carried out according to a standard method (Naunyn-Schmiedeberg's Arch. Pharmaco. 1991, 343, 106). The inhibition constants (Ki) of the products according to the invention were estimated from displacement experiments using the version 4 RADLIG non-linear regression programme of EBDA (Equilibrium Binding Data Analysis) (Biosoft, Cambridge, UK, Mc Pherson, 1985). The dissociation constants of the radioactive ligands used in the calculations are 0.31 nmole for ^3H-8-OH-DPAT. The values of pKi (−logKi) are provided under the form of average±SEM of at least 3 experiments.

The test system of test [2] is morphine withdrawal syndrome (hyperalgesia). As to the kind of experiment: Effects on morphine dependence: naloxone-precipitated withdrawal hyperalgesia (Randall and Selitto nociceptive thresholds). It is filed as in vivo. To be noted: rat, s.c. osmotic mini-pumps 2 weeks.
Description: The products are administered by means of osmotic mini-pumps (model 2ML2; flow rate 5 μl/hr: Alza Corporation, Palo Alto, USA) implanted subcutaneously on the first day of the experiment and extracted two weeks later. The pump is set in place through a transversal incision made in the skin of the dorsal face of the rat, the liberation orifice being directed towards the head.
The compound F is administered at 0.63 mg/rat/day (5.25 mg/ml) in solution in distilled water. […] The pumps implanted in the control animals release 0.12 ml of 0.9% NaCl (saline)/rat/day; the doses referring to the weight of the non salified compound.
The study consists of two phases: a phase of chronic treatment lasting 2 weeks, and a withdrawal phase lasting 1 week.
On the experiment's first day the rats were given implants of two osmotic mini-pumps.
After two weeks of chronic treatment, the withdrawal phase began. After taking base measurements on day 14, all the animals received a sub-cutaneous injection of naloxone at 0.63 mg/kg. Next, 30 minutes, 1 hr, 2 hr, 4 hr, and 8 hr after the injection, another series of measurements was taken. The pumps were extracted after the last measurement at 8 hr after the naloxone injection. A series of measurements was also taken daily 24 hr to 4 days after the naloxone injection. During this withdrawal period, the nociceptive thresholds were measured using the Randall and Selitto method (Arch. Int. Pharmacodyn. 1957, CXI, 409) in which increasing pressure is applied to the back paw until the vocalisation threshold is reached. The results are expressed in grams and a 750 g limit is imposed.
In order to evaluate the nociceptive thresholds, the areas under the curves (AUCs) were determined and processed by a variance analysis (ANOVA). The post-hoc comparisons (i.e. those following the variance analysis when the latter is significant) were made using the Student-Newman-Keuls (SNK) test for comparing groups with each other. A statistically significant effect was defined at p<0.05.

`Cc1ccc(CNCC2(F)CCN(C(=O)c3ccc(F)c(Cl)c3)CC2)nc1` [compound F, (3-Chloro-4-fluorophenyl)-(4-fluoro-4-{[(5-methyl-pyridin-2-yl-methyl)-amino]-methyl}-piperidin-1-yl)-methadone fumarate]: the “pKi site 5-HT1A” value in test [1] was found to be 9.07. In addition, the “AUC of nociceptive thresholds 30 minutes to 4 days after naloxone, versus control animals” value in test [2] (co-treatment morphine 5 mg/rat/day + compound 0.63 mg/rat/day, naloxone 0.63 mg/kg s.c., SNK p>0.05) was “statistically comparable with those obtained from the control animals”. Besides, the “AUC of nociceptive thresholds 30 minutes to 4 days after naloxone, compound alone versus control animals” value in test [2] (saline + compound 0.63 mg/rat/day, no morphine, p>0.05) is on record as “does not induce an effect on its own”.
Regarding `Clc1cnn(CCCCN2CCN(c3ncccn3)CC2)c1` [lesopitron, reference compound], the Ki in test [1] (read-out: pKi site 5-HT1A (converted)) was 55 nM. Moreover, in test [2] (co-treatment morphine 5 mg/rat/day + compound 2.5 mg/rat/day, naloxone 0.63 mg/kg s.c., SNK p<0.05 vs control), the “Effect on hyperalgesia / morphine withdrawal syndrome (AUC of nociceptive thresholds)” value is “did not have any detectable effect on the hyperalgesia”.
